Read-outs that look alike come from different tables or passages of the source.
Experiments:
DNA sequences = assay: In-vitro studies in cell cultures: effect on DNA; format: cell-based
Description: (§1) Instead of a piling pattern, mono layers of cells in regular parallel orientation formed that were typical of non-malignant fibroblasts. […] Focal Adhesion Kinase (FAK) is activated in response to receptor activation at focal adhesion sites. FAK is a substrate for the oncogenic forms of the src-family of tyrosine kinases. The action of polar agents on oncogenic expression is believed to be the induction of cancer cells to become more benign. It would seem reasonable that to convert a malignant cell to a benign phenotype, there should be some modulation of gene expression causing malignancy in the first place. In the HL-60 human promyelocytic leukemia cells, dimethylsulfoxide (DMSO) reduced the expression of c-myc oncogenes by 80 to 90%. Some brain tumours are regulated by glial-binding growth factors such as Epidermal Growth Factor (EGF) and Platelet Derived Growth Factor (PDGF) both of which are related to oncogenes. The PDGF β-chain gene is the cellular homologue and proto-oncogene of the viral […] oncogene. Cell maturation induced by polar agents (N-MF) as single agents is most likely to be effective in Neuroblastoma and Glioblastoma (as well as leukemia and melanoma). Polar agents easily penetrate the blood brain barrier and sensitize tumour cells to both X-radiation and cis-platinum. […]

[1] = inhalation study with rabbits; cited from earlier work
[2] = tested on: HOC-7 ovarian adenocarcinoma cells; assay: Immunocytochemistry of HOC-7 cells; format: cell-based, human
Description: (§2) (HOC-7) to a malignant cell. This was also found in human colon carcinoma. (Factor - beta 1 is growth factor, that can be up regulated or transformed in human cells.)
(§3) Exposure of HOC-7 ovarian adenocarcinoma cells to regulators of cell differentiation caused inducer-dependent alterations of the antigenic pattern of the cells. […] Stimulation of fibronectin was also seen after addition of transforming growth factor (TGF) - beta 1. […] CA 125, Fibronectin, and desmoplakins I and II. TGF - beta 1 stimulated fibronectin and desmoplakins I and II only.

ras-transfected cells = assay: Properties of ras-transfected FR3T3 fibroblasts; format: cell-based
Description: (§4) The high proliferation rate of the ras-3 cells was associated with elevated expression of protein B23. The 19-3 cells. But not the ras-3 cells, expressed cell surface fibronectin.

Mama Carcinoma = assay: Example 2: skin patch treatment of a patient with Mama Carcinoma; format: in vivo, human; settings: three weekly treatments, 7.04g patches for 4 hours
Karposi Sarcoma = assay: Example 3: skin patch treatment of an AIDS patient with Karposi Sarcoma; format: in vivo, human
Description: A third patient was a person suffering from full blown AIDS. The patient had seven tumours which were diagnosed as Karposi Sarcoma.

[3] = tested on: virus transformed mice kidney cell-lines; assay: Growth pattern of virus transformed kidney cell-lines; format: cell-based; settings: growth medium supplemented by 0.5% DMF
Description: as §1

FR3T3 fibroblasts = assay: EGF binding and EGF secretion in transfected FR3T3 lines and control cells; format: cell-based
Description: as §4

non-Hodgkins Lymphoma = assay: Example 4: skin patch treatment of a patient with non-Hodgkins Lymphoma; format: in vivo, human
Description: A fourth patient was an adult diagnosed with non-Hodgkins Lymphoma. The patient had not been on chemotherapy and was HIV positive.

[4] = several 90-day studies; cited from earlier work
[5] = DMF level in the patient's blood during patch treatment; format: in vivo, human; settings: patches of about 7,064 g DMF
Description: For a patient weighing about 60 kg, an amount of about 14 g over a period of 12 hours is required to produce a level of 100 ppm. […] Absorption capability varies from patient to patient depending on factors such as skin-type and skin thickness.
Daily full clinical and psychological evaluations were also conducted.

[6] = in vivo; cited from earlier work
[7] = tested on: chemistry transformed fibroblasts; assay: Phenotype of chemically transformed fibroblasts; format: cell-based
[8] = tested on: metastasised fourth stage breast cancer; assay: Example 1: skin patch treatment of a breast cancer patient; format: in vivo, human
Description: The patient was a person suffering from metastasised fourth stage breast cancer. The primary cancer was in the left breast and had spread to the right breast. The patient had auxiliary left and right swollen lymph glands under both arms, swelling of lymph glands under the chin and a secondary tumour near the crown of the head protruding from the skull which was four fingertips across. The patient was dehydrated and unable to keep down food or water.
A skin patch was applied to the skin adjacent the tumour for six hours. […] The gel served to prevent leakage of liquid DMF from the patches.
Each patch was applied for a period of 6 hours, on alternate days for one week followed by a one week break.

EGF-transfected cells = assay: Properties of EGF-transfected FR3T3 fibroblasts; format: cell-based
[9] = Toxicity of DMF by route of administration; format: in vivo; settings: subcutaneous versus oral
[10] = oral study; cited from earlier work
myc onco-proteins = assay: In-vitro studies in cell cultures: myc expression; format: cell-based
Description: as §1

HOC-7 cells = assay: Immunophenotype and growth of HOC-7 cells; format: cell-based, human
Description: Production of EGF and TGF - alpha was not affected by these inducers. Immunocytochemistry. […] The expression of myconcoproteins was inversely related to cell proliferation CA 125, however, seems to be unrelated to cell growth.

[11] = Single dose study of disposition, safety, tolerability and pharmacokinetics of virodene P058 in healthy volunteers; format: in vivo; settings: 7,06 g of DMF transdermally once a week for 8 hours, human subjects
Description: A draft interim clinical safety report produced by Guy's Drug Research Unit of Kings College and St Thomas' Hospitals' Medical and Dental School is set out below.
A single dose study of the disposition, safety, tolerability and pharmacokinetics of virodene P058 in healthy volunteers.
• ° 5 subjects dosed on day 1 (subjects 001 - 005) • ° 5 subjects dosed on day 14 (subjects 006 - 010) • ° No withdrawals • ° Final follow up for subjects 001 - 005 occurred on day 15 • ° Final follow up for subjects 006 - 010 due on day 28 Table 1.1 -
The first patch was applied at 10h00 on day 1 for subjects 001 - 005 and at 09h20 on […] for subjects 006 - 010 with 10 minute intervals between dosing.
• ° Laboratory Safety Values: No clinically significant changes observed for biochemistry, liver function tests, haematology or coagulation parameters. • ° Vital Signs - There were no obvious clinically significant changes observed • ° Continuous lead [I monitoring - No clinically significant changes observed] • ° 12 kead ECG - No clinically significant changes observed • ° Adverse events are reported in Table 1.2

[12] = tested on: HOC-7 ovarian adenocarcinoma cells; assay: ELISA of antigen expression in HOC-7 cells; format: cell-based, human
Description: as §2, §3

Tyrosine Kinase = Tyrosine Kinase Assay kit (non-radioactive # 1534505, Boehringer Mannheim); format: biochemical; settings: values only in Appendix images
Description: The results are set out in the Appendix below. [formula] [formula]

c-myc oncogenes = assay: c-myc expression in HL-60 cells; format: cell-based; settings: HL-60 human promyelocytic leukemia cells
Description: as §1

In the case of `CN(C)C=O` [DMF, dimethylformamide], the “effect on DNA sequences” value (DNA sequences) is given as “conformational changes and hypomethylation”, the “NOAEL for developmental effects” value [1] is given as 150 mg/m^3 and the “cytoplasmic and surface labeling for CA 125 and disposition of fibronectin into the extracellular matrix” value [2] is given as “stimulated”. The “membrane staining for epidermal growth factor (EGF) receptor and for desmoplakins I and II” value [2] was “elevated”, the fibronectin expression (ras-transfected cells; ras-3 cells) was “did not restore” and the “growth in monolayer culture or under anchorage-independent growth conditions” value (ras-transfected cells; ras-transfected cells, compared with EGF-transfected cells) was “much slighter effect”. The bleeding (Mama Carcinoma) was “bleeding disappeared”, the pain (Mama Carcinoma) was “less pain” and the “tumour shrunk in diameter” value (Mama Carcinoma; 3 weeks, 53 cm before treatment) was 7 cm. The recurrence of tumours (Karposi Sarcoma; after 18 months) was “no tumours had recurred”, the tumours (Karposi Sarcoma; after six treatments) was “disappeared” and the tumours (Karposi Sarcoma; after two weekly treatments, 7.04g patches for 8 hours, seven tumours) was “faded”. For the same compound, the “random piling, non-contact-inhibited growth pattern” value [3] was “marked alteration”, the “secretion of EGF” value (FR3T3 fibroblasts; 2 transfected lines as well as control cells) was “increased” and the EGF binding (FR3T3 fibroblasts; transfected cell lines) was “in neither case did DMF alter”. The cancer (non-Hodgkins Lymphoma; after eight treatments, 7.04g patches for 8 hours, 8 weeks) was “disappeared”, the recurrence of cancer (non-Hodgkins Lymphoma; eight months later) was “had not recurred” and the “NOAEL (No-Adverse-observed-Effect-Level)” value [4] was “could not be established”. The “DMF blood level obtained” value ([5]; after loss by evaporation) was 100 ppm, the “DMF blood level delivered in theory” value ([5]; theoretical) was 125 - 135 ppm and the “acute dermal, oral and inhalation toxicity” value [6] was “low”. The “phenotype of transformed fibroblasts” value [7] was “restoration of a nontransformed phenotype”, the “temperature of the tumour” value ([8]; during patch treatment) was “dropped to normal” and the “tumour reduced in size” value ([8]; patches 6 hours on alternate days for one week, then one week break) was 1 - 2 mm per week. For the same compound, the “patient's appetite” value ([8]; three days after the treatment began) was “appetite returned”, the tumour diameter ([8]; two days after first 6 hour patch, 32 cm before treatment) was 29,5 cm and the tumour circumference ([8]; two days after first 6 hour patch, 52 cm before treatment) was 51 cm. The anchorage-independent growth (EGF-transfected cells) was “inhibition”, the “normal cellular morphology and growth rate in monolayer culture” value (EGF-transfected cells) was “restoration” and the “proliferation-associated nucleolar protein B23” value (EGF-transfected cells) was “down-regulation”. The “toxicity, subcutaneously as compared with oral administration” value [9] was 5 - 10 times lower, the “NOAEL for developmental effects” value [10] was 44 mg/kg body weight and the “expression of myc onco-proteins” value (myc onco-proteins) was “inhibited”. The cell growth (HOC-7 cells; HOC-7 cells) was “growth inhibition”, the “effectiveness in changing the immunophenotype of HOC-7 cells” value (HOC-7 cells; compared with TGF-beta 1) was “more effective” and the liver enzymes [11] was “does not result in raised liver enzymes”. For the same compound, the serious adverse events [11] was “no serious adverse events”, the toxicity [11] was “non-toxic” and the “expression of EGF - receptor, CA 125, Fibronectin, and desmoplakins I and II” value [12] was “dose dependently induced”. For the same compound, the “effect of DMF on PTK” value (Tyrosine Kinase) was “Tyrosine Kinase inhibitor”.
For `C[S+](C)[O-]` [DMSO, dimethylsulfoxide], the “reduced expression of c-myc oncogenes” value (c-myc oncogenes) was 80 to 90%.
